# Test results reported in article PMC10165273, “Itch receptor MRGPRX4 interacts with the receptor activity–modifying proteins” (The Journal of Biological Chemistry, 2023).
# Like-named read-outs stand apart in the source and are kept apart here.
# Biological target: T1, MRGPRX4 (Homo sapiens, UniProt Q96LA9)
# T1 construct: expressed in transfected cells; host or cells: HEK293T
# Assay: IP1 accumulation HTRF assay, MRGPRX4;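 on IP1 accumulation, dose-response (Figure 1a): 0% is unstimulated mock-transfected cells and 100% is fully stimulated MRGPRX4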
# Format: cell-based
# Settings: 2 h; for activation at 16 µM: log [agonist] (M) -4.79588; for activation at 3.2 µM: log [agonist] (M) -5.49485; for activation at 0.64 µM: log [agonist] (M) -6.19382; for activation at 0.128 µM: log [agonist] (M) -6.89279; for activation at 0.0256 µM: log [agonist] (M) -7.59176
# [1] = SP-FLAG-Nluc-HT7-MRGX4_Tet-GFP10-1D4, read-out: normalized IP1 accumulation
# [2] = SP-FLAG-Nluc-HT7-MRGX4_Tet-GFP10-1D4 no dox, read-out: normalized IP1 accumulation
# T1 sequence (Q96LA9 whole entry): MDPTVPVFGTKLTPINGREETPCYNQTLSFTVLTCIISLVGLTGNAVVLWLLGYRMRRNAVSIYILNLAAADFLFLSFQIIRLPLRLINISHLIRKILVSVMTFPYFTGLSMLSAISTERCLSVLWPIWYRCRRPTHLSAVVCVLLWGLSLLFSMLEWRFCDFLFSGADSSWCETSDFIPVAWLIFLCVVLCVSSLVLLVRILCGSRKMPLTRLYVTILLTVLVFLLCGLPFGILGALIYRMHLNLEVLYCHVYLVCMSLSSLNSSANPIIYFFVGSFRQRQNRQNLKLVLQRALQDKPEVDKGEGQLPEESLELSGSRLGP
smiles,measurement,setting,value
CC(C)[C@H]1CC[C@H](C(=O)N[C@H](Cc2ccccc2)C(=O)O)CC1 [Nateglinide],activation at 100 µM,"HA-MRGX4-1D4, log [agonist] (M) -4, read-out: normalized IP1 accumulation",84.6%
same,activation at 20 µM,"HA-MRGX4-1D4, log [agonist] (M) -4.69897, read-out: normalized IP1 accumulation",63.4%
same,activation at 4 µM,"HA-MRGX4-1D4, log [agonist] (M) -5.39794, read-out: normalized IP1 accumulation",30.8%
same,activation at 0.8 µM,"HA-MRGX4-1D4, log [agonist] (M) -6.09691, read-out: normalized IP1 accumulation",17.7%
same,activation at […],"HA-MRGX4-1D4, log [agonist] (M) -6.79588, read-out: normalized IP1 accumulation",12.4%
same,activation at 0.032 µM,"HA-MRGX4-1D4, log [agonist] (M) -7.49485, read-out: normalized IP1 accumulation",12.5%
same,activation at 100 µM,"MRGPRX4: 0.25pg/cell, log [Nateglinide] (M) -4, Fig S1b, read-out: IP1 accumulation",76.9%
same,activation at 20 µM,"MRGPRX4: 0.25pg/cell, log [Nateglinide] (M) -4.69897, Fig S1b, read-out: IP1 accumulation",53.7%
same,activation at 4 µM,"MRGPRX4: 0.25pg/cell, log [Nateglinide] (M) -5.39794, Fig S1b, read-out: IP1 accumulation",21.2%
same,activation at […],"MRGPRX4: 0.25pg/cell, log [Nateglinide] (M) -6.79588, Fig S1b, read-out: IP1 accumulation",3.43%
same,activation at 0.032 µM,"MRGPRX4: 0.25pg/cell, log [Nateglinide] (M) -7.49485, Fig S1b, read-out: IP1 accumulation",3.78%
same,activation at 100 µM,"MRGPRX4: 0.5pg/cell, log [Nateglinide] (M) -4, Fig S1b, read-out: IP1 accumulation",92.5%
same,activation at 20 µM,"MRGPRX4: 0.5pg/cell, log [Nateglinide] (M) -4.69897, Fig S1b, read-out: IP1 accumulation",65.9%
same,activation at 4 µM,"MRGPRX4: 0.5pg/cell, log [Nateglinide] (M) -5.39794, Fig S1b, read-out: IP1 accumulation",33%
same,activation at 0.8 µM,"MRGPRX4: 0.5pg/cell, log [Nateglinide] (M) -6.09691, Fig S1b, read-out: IP1 accumulation",11.8%
same,activation at […],"MRGPRX4: 0.5pg/cell, log [Nateglinide] (M) -6.79588, Fig S1b, read-out: IP1 accumulation",6.22%
same,activation at 0.032 µM,"MRGPRX4: 0.5pg/cell, log [Nateglinide] (M) -7.49485, Fig S1b, read-out: IP1 accumulation",5.53%
same,activation at 100 µM,"MRGPRX4: 1pg/cell, log [Nateglinide] (M) -4, Fig S1b, read-out: IP1 accumulation",92.1%
same,activation at 20 µM,"MRGPRX4: 1pg/cell, log [Nateglinide] (M) -4.69897, Fig S1b, read-out: IP1 accumulation",75.4%
same,activation at 4 µM,"MRGPRX4: 1pg/cell, log [Nateglinide] (M) -5.39794, Fig S1b, read-out: IP1 accumulation",37.9%
same,activation at 0.8 µM,"MRGPRX4: 1pg/cell, log [Nateglinide] (M) -6.09691, Fig S1b, read-out: IP1 accumulation",17.7%
same,activation at […],"MRGPRX4: 1pg/cell, log [Nateglinide] (M) -6.79588, Fig S1b, read-out: IP1 accumulation",11.7%
same,activation at 0.032 µM,"MRGPRX4: 1pg/cell, log [Nateglinide] (M) -7.49485, Fig S1b, read-out: IP1 accumulation",9.46%
same,activation at 100 µM,"MRGPRX4: 2pg/cell, log [Nateglinide] (M) -4, Fig S1b/c, read-out: IP1 accumulation",100%
same,activation at 20 µM,"MRGPRX4: 2pg/cell, log [Nateglinide] (M) -4.69897, Fig S1b/c, read-out: IP1 accumulation",88.5%
same,activation at 4 µM,"MRGPRX4: 2pg/cell, log [Nateglinide] (M) -5.39794, Fig S1b/c, read-out: IP1 accumulation",44.1%
same,activation at 0.8 µM,"MRGPRX4: 2pg/cell, log [Nateglinide] (M) -6.09691, Fig S1b/c, read-out: IP1 accumulation",21.4%
same,activation at […],"MRGPRX4: 2pg/cell, log [Nateglinide] (M) -6.79588, Fig S1b/c, read-out: IP1 accumulation",13.8%
same,activation at 0.032 µM,"MRGPRX4: 2pg/cell, log [Nateglinide] (M) -7.49485, Fig S1b/c, read-out: IP1 accumulation",12.6%
same,activation at 100 µM,"MRGPRX4: […], log [Nateglinide] (M) -4, Fig S1b, read-out: IP1 accumulation",68.7%
same,activation at 20 µM,"MRGPRX4: […], log [Nateglinide] (M) -4.69897, Fig S1b, read-out: IP1 accumulation",45%
same,activation at 4 µM,"MRGPRX4: […], log [Nateglinide] (M) -5.39794, Fig S1b, read-out: IP1 accumulation",17.6%
same,activation at 0.8 µM,"MRGPRX4: […], log [Nateglinide] (M) -6.09691, Fig S1b, read-out: IP1 accumulation",5.45%
same,activation at 0.032 µM,"MRGPRX4: […], log [Nateglinide] (M) -7.49485, Fig S1b, read-out: IP1 accumulation",2.09%
same,activation at 30 µM,"MRGPRX4, nateglinide 30uM, Fig S1d",86.4%
same,activation at 100 µM,"MRGPRX4, nateglinide 100uM, Fig S1d, read-out: IP1 accumulation",100%
same,activation at 100 µM,"MRGPRX4 alone, log [Nateglinide] (M) -4, Fig S3a-c, read-out: IP1 accumulation",100%
same,activation at 20 µM,"MRGPRX4 alone, log [Nateglinide] (M) -4.69897, Fig S3a-c, read-out: IP1 accumulation",85.7%
same,activation at 4 µM,"MRGPRX4 alone, log [Nateglinide] (M) -5.39794, Fig S3a-c, read-out: IP1 accumulation",46.2%
same,activation at 0.8 µM,"MRGPRX4 alone, log [Nateglinide] (M) -6.09691, Fig S3a-c, read-out: IP1 accumulation",23%
same,activation at […],"MRGPRX4 alone, log [Nateglinide] (M) -6.79588, Fig S3a-c, read-out: IP1 accumulation",17.8%
same,activation at 0.032 µM,"MRGPRX4 alone, log [Nateglinide] (M) -7.49485, Fig S3a-c, read-out: IP1 accumulation",17.4%
same,activation at 30 µM,"MRGX4 + Ng, 30uM, U73122 30uM, Fig S1e",21.3%
same,activation at 30 µM,"MRGX4 + Ng, 30uM, buffer, Fig S1e",84.5%
same,activation at 100 µM,"MRGX4 + Ng, 100uM, U73122 30uM, Fig S1e, read-out: IP1 accumulation",31%
same,activation at 100 µM,"MRGX4 + Ng, 100uM, buffer, Fig S1e, read-out: IP1 accumulation",100%
same,activation at 80 µM,"SP-FLAG-Nluc-HT7-MRGX4_Tet-GFP10-1D4, log [agonist] (M) -4.09691, read-out: normalized IP1 accumulation",49.1%
same,activation at 16 µM,[1],42%
same,activation at 3.2 µM,[1],23.5%
same,activation at 0.64 µM,[1],12.9%
same,activation at 0.128 µM,[1],10.3%
same,activation at 0.0256 µM,[1],9.54%
same,activation at 16 µM,[2],10.5%
same,activation at 3.2 µM,[2],7.88%
same,activation at 0.64 µM,[2],7.83%
same,activation at 0.128 µM,[2],7.62%
same,activation at 0.0256 µM,[2],8.15%
same,activation at 100 µM,"SP-Flag-MRGX4-1D4, log [agonist] (M) -4, read-out: normalized IP1 accumulation",85.6%
same,activation at 20 µM,"SP-Flag-MRGX4-1D4, log [agonist] (M) -4.69897, read-out: normalized IP1 accumulation",66.9%
same,activation at 4 µM,"SP-Flag-MRGX4-1D4, log [agonist] (M) -5.39794, read-out: normalized IP1 accumulation",28.3%
same,activation at 0.8 µM,"SP-Flag-MRGX4-1D4, log [agonist] (M) -6.09691, read-out: normalized IP1 accumulation",11.8%
same,activation at […],"SP-Flag-MRGX4-1D4, log [agonist] (M) -6.79588, read-out: normalized IP1 accumulation",7.74%
same,activation at 0.032 µM,"SP-Flag-MRGX4-1D4, log [agonist] (M) -7.49485, read-out: normalized IP1 accumulation",8.22%
same,activation at 100 µM,"SP-Flag-MRGX4-GFP10-1D4, log [agonist] (M) -4, read-out: normalized IP1 accumulation",100%
same,activation at 20 µM,"SP-Flag-MRGX4-GFP10-1D4, log [agonist] (M) -4.69897, read-out: normalized IP1 accumulation",74%
same,activation at 4 µM,"SP-Flag-MRGX4-GFP10-1D4, log [agonist] (M) -5.39794, read-out: normalized IP1 accumulation",34.7%
same,activation at 0.8 µM,"SP-Flag-MRGX4-GFP10-1D4, log [agonist] (M) -6.09691, read-out: normalized IP1 accumulation",13.4%
same,activation at […],"SP-Flag-MRGX4-GFP10-1D4, log [agonist] (M) -6.79588, read-out: normalized IP1 accumulation",8.46%
same,activation at 0.032 µM,"SP-Flag-MRGX4-GFP10-1D4, log [agonist] (M) -7.49485, read-out: normalized IP1 accumulation",8.07%
same,activation at 3.7037 µM,"log [agonist] (M) -5.43136, MRGX4-transfected, individual replicates, read-out: IP1 accumulation, dose-response (Figure 1a)",40%
same,activation at 0.4115 µM,"log [agonist] (M) -6.38561, MRGX4-transfected, individual replicates, read-out: IP1 accumulation, dose-response (Figure 1a)",19.1%
same,activation at 100 µM,"log [nateglinide] (M) -4, Dox 13 ng/mL, Supplementary Figure 5a, read-out: IP1 accumulation (normalized)",79.6%
same,activation at 100 µM,"log [nateglinide] (M) -4, Dox 13 ng/mL, Supplementary Figure 5b, read-out: IP1 accumulation (normalized)",13.6%
same,activation at 100 µM,"log [nateglinide] (M) -4, Dox 13 ng/mL, Supplementary Figure 5c, read-out: IP1 accumulation (normalized)",46.6%
same,activation at 100 µM,"log [nateglinide] (M) -4, Dox 40 ng/mL, Supplementary Figure 5a, read-out: IP1 accumulation (normalized)",82.2%
